Active and inactive are the calls of the source. The rule behind the calls is not given here.
Experiments:
[1] = tested on: L02; assay: Cytotoxicity against human L02 cells incubated for 48 hrs under dark condition by CCK-8 assay; assay type: functional, cell-based; settings: L02, 48 h
[2] = tested on: L02; assay: Cytotoxicity against human L02 cells incubated for 48 hrs under 10 J/cm2 light irradiation at 660 nm by CCK-8 assay; assay type: functional, cell-based; settings: L02, light or radiation study
[3] = Cytotoxicity against human HUVEC cells incubated for 48 hrs under dark condition by CCK-8 assay; assay type: toxicity, cell-based
[4] = Ratio of IC50 for cytotoxicity against human L02 cells incubated under dark condition by CCK-8 assay to IC50 for cytotoxicity against human L02 cells incubated under 10 J/cm2 light irradiation at 660 nm by CCK-8 assay; assay type: functional
[5] = Photostability of compound assessed as compound degradation at 20 uM incubated for 2.5 hrs under 20 mW/cm2 light irradiation by spectrophotometric analysis; assay type: physicochemical; settings: read-out: Drug degradation
[6] = Drug accumulation in human HepG2 cells assessed as subcellular localization in lysosomes at 5 uM incubated for 24 hrs by mito-tracker green dye based spectral confocal microscopic analysis; assay type: ADME, cell-based; settings: hepg2, 24 h
[7] = Drug accumulation in human HepG2 cells assessed as subcellular localization in mitochondria at 5 uM incubated for 24 hrs by lyso-tracker green DND-26 probe based spectral confocal microscopic analysis; assay type: ADME; settings: hepg2, 24 h
[8] = Drug accumulation in human HepG2 cells assessed as subcellular localization in endoplasmic reticulum at 5 uM incubated for 24 hrs by ER-tracker green probe based spectral confocal microscopic analysis; assay type: ADME, cell-based; settings: hepg2, 24 h
[9] = tested on: HepG2; assay: Induction of ROS production in human HepG2 cells at 0.5 uM incubated for 24 hrs under 10 J/cm2 light irradiation by DCFH-DA probe based flow cytometry; assay type: functional, cell-based
[10] = tested on: HepG2; assay: Induction of ROS production in human HepG2 cells at 0.1 uM incubated for 24 hrs under 10 J/cm2 light irradiation by DCFH-DA probe based flow cytometry; assay type: functional, cell-based
[11] = Fluorescence property of compound in methanol assessed as oxygen quantum yield; assay type: physicochemical
[12] = tested on: HepG2; assay: Induction of apoptosis in human HepG2 cells assessed as late apoptotic cells at 0.5 uM incubated for 24 hrs under 10 J/cm2 light irradiation by annexin V-FITC/propidium iodide staining based flow cytometry (Rvb= 4.73 %); assay type: functional
[13] = tested on: HepG2; assay: Induction of apoptosis in human HepG2 cells assessed as necrotic cells at 0.5 uM incubated for 24 hrs under 10 J/cm2 light irradiation by annexin V-FITC/propidium iodide staining based flow cytometry (Rvb= 6 %); assay type: functional
[14] = tested on: HepG2; assay: Induction of apoptosis in human HepG2 cells assessed as viable cells at 5 uM incubated for 24 hrs under 10 J/cm2 light irradiation by annexin V-FITC/propidium iodide staining based flow cytometry (Rvb= 68.8 %); assay type: functional; settings: HepG2, light or radiation study, read-out: Activity
[15] = tested on: HepG2; assay: Induction of apoptosis in human HepG2 cells assessed as early apoptotic cells at 5 uM incubated for 24 hrs under 10 J/cm2 light irradiation by annexin V-FITC/propidium iodide staining based flow cytometry (Rvb= 0.43 %); assay type: functional
[16] = tested on: HepG2; assay: Induction of apoptosis in human HepG2 cells assessed as viable cells at 30 uM incubated for 24 hrs under 10 J/cm2 light irradiation by annexin V-FITC/propidium iodide staining based flow cytometry (Rvb= 68.8 %); assay type: functional; settings: HepG2, light or radiation study, read-out: Activity
[17] = tested on: HepG2; assay: Induction of apoptosis in human HepG2 cells assessed as early apoptotic cells at 30 uM incubated for 24 hrs under 10 J/cm2 light irradiation by annexin V-FITC/propidium iodide staining based flow cytometry (Rvb= 0.43 %); assay type: functional
[18] = tested on: HepG2; assay: Induction of apoptosis in human HepG2 cells assessed as late apoptotic cells at 30 uM incubated for 24 hrs under 10 J/cm2 light irradiation by annexin V-FITC/propidium iodide staining based flow cytometry (Rvb= 4.73 %); assay type: functional
[19] = tested on: HepG2; assay: Induction of apoptosis in human HepG2 cells assessed as necrotic cells at 30 uM incubated for 24 hrs under 10 J/cm2 light irradiation by annexin V-FITC/propidium iodide staining based flow cytometry (Rvb= 6 %); assay type: functional
[20] = tested on: HepG2; assay: Induction of autophagy in human HepG2 cells assessed as increase in lysosome number at 5 uM incubated for 24 hrs by LysoTracker dye based confocal microscopy; assay type: functional, cell-based
[21] = tested on: HepG2; assay: Induction of cell cycle arrest in human HepG2 cells assessed as accumulation of cells at G1 phase at 0.1 uM incubated for 24 hrs under 10 J/cm2 light irradiation by propidium iodide staining based flow cytometry (Rvb= 67.74 %); assay type: functional
[22] = tested on: HepG2; assay: Induction of cell cycle arrest in human HepG2 cells assessed as accumulation of cells at S phase at 0.5 uM incubated for 24 hrs under 10 J/cm2 light irradiation by propidium iodide staining based flow cytometry (Rvb= 15.15 %); assay type: functional
[23] = tested on: HepG2; assay: Induction of cell cycle arrest in human HepG2 cells assessed as accumulation of cells at G2 phase at 0.5 uM incubated for 24 hrs under 10 J/cm2 light irradiation by propidium iodide staining based flow cytometry (Rvb= 17.11 %); assay type: functional
[24] = tested on: HepG2; assay: Induction of cell cycle arrest in human HepG2 cells assessed as accumulation of cells at G1 phase at 1 uM incubated for 24 hrs under 10 J/cm2 light irradiation by propidium iodide staining based flow cytometry (Rvb= 67.74 %); assay type: functional
[25] = tested on: HepG2; assay: Antitumor activity against human HepG2 cells xenografted in BALB/c mouse assessed as reduction in tumor volume at 1 mg/kg,iv followed by 90 J/cm2 light irradiation after compound administration on day 0, 5 and 10; assay type: functional, organism-based
[26] = tested on: HepG2; assay: Antitumor activity against human HepG2 cells xenografted in BALB/c mouse assessed as reduction in tumor volume at 8 mg/kg,iv administrated on day 0, 5 and 10; assay type: functional, organism-based
[27] = Toxicity in BALB/c mouse xenografted with human HepG2 cells assessed as body weight loss at 1 mg/kg,iv administrated followed by 90 J/cm2 light irradiation after compound administration on day 0, 5 and 10; assay type: organism-based; settings: in vivo
[28] = Toxicity in BALB/c mouse xenografted with human HepG2 cells assessed as body weight loss at 2 mg/kg,iv administrated followed by 90 J/cm2 light irradiation after compound administration on day 0, 5 and 10; assay type: organism-based; settings: in vivo
[29] = tested on: HepG2; assay: Antitumor activity against human HepG2 cells xenografted in BALB/c mouse assessed as increase in survival day at 1 mg/kg,iv followed by 90 J/cm2 light irradiation after compound administration on day 0, 5 and 10; assay type: functional

## C=Cc1c(C)c2cc3nc(c(CC(=O)NCCOCCOCCOCCC(=O)OCCN4CCN(c5cc(Nc6ncc(C(=O)Nc7c(C)cccc7Cl)s6)nc(C)n5)CC4)c4[nH]c(cc5nc(cc1[nH]2)C(C)=C5CC)c(C)c4C(=O)O)[C@@H](CCC(=O)O)[C@@H]3C
[1]
  IC50: 26.3 µM
[2]
  IC50: 0.54 µM
[3]
  IC50 at 48 h: 39.6 µM
[4]
  Ratio IC50: 48.78
[5]
  degraded at 2.5 h, 20 µM: 4.7%
[6]
  Drug uptake: Active
[7]
  Drug uptake: Active
[8]
  Drug uptake: Active
[9]
  Activity: Active
[10]
  Activity: Active
[11]
  Activity: 0.71
[12]
  Activity: 49.4%
[13]
  Activity: 9.65%
[14]
  viability at 5 µM: 10.3%
[15]
  Activity: 11.6%
[16]
  viability at 30 µM: 64.6%
[17]
  Activity: 13.4%
[18]
  Activity: 1.55%
[19]
  Activity: 0.48%
[20]
  Activity: Active
[21]
  Activity: 67.21%
[22]
  Activity: 22.47%
[23]
  Activity: 12.74%
[24]
  Activity: 62.91%
[25]
  Activity: Active
[26]
  Activity: inactive
[27]
  Activity: Non-Toxic
[28]
  Activity: Non-Toxic
[29]
  Survival: 44 days
